TGI data for five molecules are collected here from PubChem BioAssay (NCI).

What all share (experiment): growth of human tumour cells (NCI), 48 h
The test system of assay [1] is CAKI-1 renal.
The subject of assay [2] is CCRF-CEM leukemia.
Assay [3] concerns EKVX NSCLC.
Assay [4] relates to HCC-2998 colon.
Assay [5] concerns KM12 colon.
In assay [6] the test system is KM20L2 colon.
Assay [7] deals with LOX IMVI melanoma.
The test system of assay [8] is M19-MEL melanoma.
The test system of assay [9] is MALME-3M melanoma.
In assay [10] the test system is NCI-H226 lung.
Assay [11] concerns NCI-H522 lung.
The test system of assay [12] is RPMI-8226 leukemia.
For assay [13], the system named is SF-268 CNS.
Assay [14] has as its system SF-539 CNS.
For assay [15], the system named is SNB-19 CNS.
Assay [16] deals with SNB-78 CNS.
Assay [17] concerns U251 CNS.
Assay [18] deals with UACC-257 melanoma.
In assay [19] the test system is UACC-62 melanoma.
The test system of assay [20] is M14 melanoma.

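Briefly, cells in 96-well plates were exposed to five compound concentrations for 48 h, and endpoints were estimated by linear interpolation. TGI is the concentration that stops growth completely.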

Regarding `CCCN1C(=O)/C(=C(/O)C(=O)OCC)C(c2ccc(OC)c(OC)c2)C1=O` (stereo unspecified), the TGI in assay [1], in [2], in [3], in [4], in assay [5] and in assay [6] was above 100 µM in each case. Besides, the TGI in [7], in assay [8], in assay [9], in assay [10], in [11] and in assay [12] was above 100 µM each time. The TGI in [13], in assay [14], in assay [15], in assay [16], in assay [17] and in assay [18] was above 100 µM throughout. Further, the TGI in assay [19] is above 100 µM.
Regarding `COc1cc(-c2coc3c(OC)c(OC4OC(COC5OC(C)C(O)C(O)C5O)C(O)C(O)C4O)c(OC)c(O)c3c2=O)cc(C)c1O` (stereo unspecified), the TGI in [1] is 38.9 µM; in assay [2], above 100 µM; in assay [3], 38 µM; in assay [4], 39.2 µM; in [5], 29.3 µM; in assay [7], 45.3 µM. Also, the TGI in assay [20] was determined as 33.1 µM; in assay [9], 33.9 µM; in assay [11], 34.7 µM; in assay [13] it was 62.2 µM; in [14] it was 39 µM; in assay [15], 30.3 µM. Further, the TGI is 32.9 µM in [17], 68.2 µM in [18] and 34.7 µM in assay [19].
Regarding `O=c1cc2cc(O)[nH]c(=O)c2c(O)[nH]1`, the TGI in assay [1], in assay [2], in assay [5], in assay [6], in [7] and in [20] was above 100 µM throughout. The TGI in [8], in assay [9], in assay [10], in assay [11], in [12] and in assay [13] was above 100 µM in each case. Also, the TGI in assay [14], in assay [15], in assay [16], in [17], in assay [18] and in assay [19] was above 100 µM throughout.
For the molecule `CC(C)(C)c1cc(C2NC(=O)NC2=O)cc(C(C)(C)C)c1O` (stereo unspecified), the TGI in assay [1] was above 100 µM; in assay [2], above 100 µM; in assay [3], above 100 µM; in assay [5], 48.4 µM; in [7], above 100 µM; in [20] it was above 100 µM. For the same molecule, the TGI in assay [9], in [10], in [11], in [12], in assay [13] and in assay [14] was above 100 µM throughout. For the same molecule, the TGI in assay [15], in assay [17] and in assay [19] was above 100 µM in each case.
For `CC(=O)OC1C(O)C(C)OC(OC(=O)C2CCC3C(C2)OC2(CC(OC(=O)/C=C/c4ccccc4)C(C)CO2)C32CO2)C1OC1OC(C)C(O)C(O)C1O` (stereo unspecified), the TGI in assay [1] came to 9.74 µM; in assay [2], 1.26 µM; in assay [3] it was 0.246 µM; in [4], 0.0881 µM; in [5], 0.144 µM; in [6], 1.42 µM. Besides, the TGI in assay [7] is 0.362 µM; in assay [8] it was 0.0497 µM; in assay [9] it was 0.093 µM; in assay [10], 0.1 µM; in assay [11], 0.0487 µM; in assay [12], 1.15 µM. Besides, the TGI in assay [13] turned out to be 0.15 µM; in [14] it was 0.105 µM; in assay [15], 0.0909 µM; in assay [16], 0.104 µM; in [17], 0.12 µM; in assay [18] it was 0.0726 µM. Also, the TGI in assay [19] turned out to be 0.114 µM.
